# According to ChEMBL document CHEMBL1821572, “Discovery of a novel series of selective HCN1 blockers” (Bioorg Med Chem Lett, 2011):
# Columns and labels:
# Homo sapiens [1] = species: Homo sapiens; test: Selectivity for human HCN1 over human HCN4
# [2] = target: T1, Potassium/sodium hyperpolarization-activated cyclic nucleotide-gated channel 1 (Homo sapiens, UniProt O60741); test: Inhibition of human HCN1 heterologously expressed in HEK-293 cells after 30 mins by VIPR assay; assay type: cell-based, HEK293
# T1 sequence (O60741 whole entry): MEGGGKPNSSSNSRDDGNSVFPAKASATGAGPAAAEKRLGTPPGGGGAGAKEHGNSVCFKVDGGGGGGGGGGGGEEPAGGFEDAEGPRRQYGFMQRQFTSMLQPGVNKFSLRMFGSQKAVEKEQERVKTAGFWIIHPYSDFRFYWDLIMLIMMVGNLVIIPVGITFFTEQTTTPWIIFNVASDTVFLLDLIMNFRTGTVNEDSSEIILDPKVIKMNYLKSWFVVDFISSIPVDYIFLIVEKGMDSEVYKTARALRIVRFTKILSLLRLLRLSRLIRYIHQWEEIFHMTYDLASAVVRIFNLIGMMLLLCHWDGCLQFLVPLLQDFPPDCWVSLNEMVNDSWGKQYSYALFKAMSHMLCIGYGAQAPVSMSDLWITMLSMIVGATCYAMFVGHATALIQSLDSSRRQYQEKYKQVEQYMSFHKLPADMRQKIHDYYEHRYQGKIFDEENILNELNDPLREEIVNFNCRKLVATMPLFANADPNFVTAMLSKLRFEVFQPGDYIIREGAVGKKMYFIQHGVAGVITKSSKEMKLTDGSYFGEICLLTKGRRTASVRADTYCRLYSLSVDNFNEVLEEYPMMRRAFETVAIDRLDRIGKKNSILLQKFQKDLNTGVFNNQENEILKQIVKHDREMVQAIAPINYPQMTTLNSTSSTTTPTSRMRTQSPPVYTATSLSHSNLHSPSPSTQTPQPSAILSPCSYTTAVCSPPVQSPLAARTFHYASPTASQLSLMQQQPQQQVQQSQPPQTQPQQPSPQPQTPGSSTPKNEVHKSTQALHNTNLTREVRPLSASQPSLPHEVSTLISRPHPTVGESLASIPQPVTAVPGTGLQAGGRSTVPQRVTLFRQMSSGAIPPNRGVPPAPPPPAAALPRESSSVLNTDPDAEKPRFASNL
# [3] = target: T2, Potassium/sodium hyperpolarization-activated cyclic nucleotide-gated channel 4 (Homo sapiens, UniProt Q9Y3Q4); test: Inhibition of human HCN4 heterologously expressed in HEK-293 cells after 30 mins by VIPR assay; assay type: cell-based, HEK293
# T2 sequence (Q9Y3Q4 whole entry): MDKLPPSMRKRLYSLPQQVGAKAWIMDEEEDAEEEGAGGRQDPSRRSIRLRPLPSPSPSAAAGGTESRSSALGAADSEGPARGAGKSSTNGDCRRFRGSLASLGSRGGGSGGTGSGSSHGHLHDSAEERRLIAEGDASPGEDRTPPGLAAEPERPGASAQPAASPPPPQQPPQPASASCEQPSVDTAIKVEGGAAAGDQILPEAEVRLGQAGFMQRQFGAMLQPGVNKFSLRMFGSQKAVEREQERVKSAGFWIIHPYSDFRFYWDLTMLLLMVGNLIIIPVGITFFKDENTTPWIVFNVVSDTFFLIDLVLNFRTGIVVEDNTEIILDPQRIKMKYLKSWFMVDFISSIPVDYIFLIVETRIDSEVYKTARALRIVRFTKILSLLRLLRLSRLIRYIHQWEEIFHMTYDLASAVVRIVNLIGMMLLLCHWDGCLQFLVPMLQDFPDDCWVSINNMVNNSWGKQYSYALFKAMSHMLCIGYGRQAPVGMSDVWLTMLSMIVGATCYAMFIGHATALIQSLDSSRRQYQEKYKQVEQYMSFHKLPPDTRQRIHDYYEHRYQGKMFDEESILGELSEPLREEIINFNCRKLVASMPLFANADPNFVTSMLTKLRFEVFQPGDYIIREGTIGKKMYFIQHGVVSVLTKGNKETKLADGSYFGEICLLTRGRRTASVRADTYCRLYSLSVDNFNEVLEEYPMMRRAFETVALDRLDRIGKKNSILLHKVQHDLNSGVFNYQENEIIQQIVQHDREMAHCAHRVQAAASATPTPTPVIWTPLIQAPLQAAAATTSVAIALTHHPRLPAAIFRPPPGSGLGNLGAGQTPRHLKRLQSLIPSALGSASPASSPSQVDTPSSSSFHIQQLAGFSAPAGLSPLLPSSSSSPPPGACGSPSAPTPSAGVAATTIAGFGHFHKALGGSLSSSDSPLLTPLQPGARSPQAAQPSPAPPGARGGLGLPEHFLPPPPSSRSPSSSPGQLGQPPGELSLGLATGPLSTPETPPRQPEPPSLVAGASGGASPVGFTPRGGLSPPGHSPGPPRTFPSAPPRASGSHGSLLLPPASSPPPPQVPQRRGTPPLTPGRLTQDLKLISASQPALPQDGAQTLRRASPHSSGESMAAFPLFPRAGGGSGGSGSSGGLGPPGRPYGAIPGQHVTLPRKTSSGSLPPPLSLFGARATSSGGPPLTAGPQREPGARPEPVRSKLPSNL
# Homo sapiens [4] = species: Homo sapiens; test: Selectivity for human HCN1 over human HCN2
# [5] = Half life in human liver microsomes; assay type: ADME, Microsome
# Mus musculus [6] = species: Mus musculus; test: Toxicity in C57BL/6 mouse assessed as induction of bradycardia after 50 mins by ECG study; assay type: organism-based; conditions: in vivo
# Mus musculus [7] = test: Antiallodynic activity in ip dosed C57BL/6 mouse spared-nerve injury model assessed as reduction of tactile allodynia after 60 mins; assay type: functional; conditions: C57BL/6, ip, 1 h
structure (smiles),measurement,setting,value
COc1ccccc1C(=O)NCC1(N2CCN(C)CC2)CCCCC1,Selectivity ratio,Homo sapiens [1],10
same,IC50,[2],398 nM
same,IC50,[3],5010 nM
CN1CCN(C2(CNC(=O)c3ccccc3OCc3ccccc3)Cc3ccccc3C2)CC1,IC50,[2],631 nM
same,IC50,[3],2510 nM
Cc1ccccc1C(=O)NCC1(N2CCN(C)CC2)CCCCC1,Selectivity ratio,Homo sapiens [1],10
same,IC50,[2],63100 nM
same,IC50,[3],> 200000 nM
CCOc1ccccc1C(=O)NCC1(N2CCN(C3CCC3)CC2)CCCCC1,Selectivity ratio,Homo sapiens [1],10
same,IC50,[2],79.4 nM
same,IC50,[3],794 nM
CCc1ccccc1C(=O)NCC1(N2CCN(C(C)C)CC2)CCCCC1,Selectivity ratio,Homo sapiens [1],10
same,IC50,[2],> 200000 nM
same,IC50,[3],79400 nM
COc1ccccc1C(=O)NCC(c1ccc(C)cc1)N1CCN(C)CC1 (configuration not stated),IC50,[2],2510 nM
same,IC50,[3],20000 nM
COc1ccc(C(=O)NCC2(N3CCN(C)CC3)Cc3ccccc3C2)cc1,IC50,[2],100000 nM
same,IC50,[3],> 200000 nM
COc1ccccc1C(=O)NCC1(N2CCCCC2)Cc2ccccc2C1,IC50,[2],50100 nM
same,IC50,[3],> 200000 nM
COc1ccccc1C(=O)NCC1(N2CCN(C)CC2)CCc2ccccc2C1 (configuration not stated),IC50,[2],1580 nM
same,IC50,[3],6310 nM
CCOc1ccccc1C(=O)NCC1(N2CCN(C3CCCC3)CC2)CCCCC1,Selectivity ratio,Homo sapiens [1],10
same,IC50,[2],200 nM
same,IC50,[3],794 nM
COc1cccc(C(=O)NCC2(N3CCN(C)CC3)Cc3ccccc3C2)c1,IC50,[2],63100 nM
same,IC50,[3],> 200000 nM
COc1ccccc1C(=O)NCCN1CCN(C)CC1,IC50,[2],> 200000 nM
same,pIC50,[3]; hek293,> 3.7
COc1ccccc1C(=O)NCC1(N2CCN(C(C)C)CC2)CCN(c2ccccc2)CC1,IC50,[2],631 nM
same,IC50,[3],5010 nM
CN1CCN(C2(CNC(=O)c3ccccc3Cl)CCCCC2)CC1,Selectivity ratio,Homo sapiens [1],10
same,IC50,[2],> 200000 nM
same,IC50,[3],31600 nM
CCOc1ccccc1C(=O)NCC1(N2CCCCC2)Cc2ccccc2C1,IC50,[2],15800 nM
same,IC50,[3],39800 nM
CCOc1ccccc1C(=O)NCC1(N2CCN(CC)CC2)CCCCC1,Selectivity ratio,Homo sapiens [1],10
same,IC50,[2],31.6 nM
same,IC50,[3],158 nM
CCOc1ccccc1C(=O)NCC1(N2CCN(C)CC2)Cc2ccccc2C1,IC50,[2],398 nM
same,IC50,[3],5010 nM
COc1ccccc1C(=O)NCC1(N2CCN(C)CC2)Cc2ccccc2C1,IC50,[2],1260 nM
same,IC50,[3],20000 nM
CN1CCN(C2(CNC(=O)c3ccccc3OC(F)(F)F)Cc3ccccc3C2)CC1,IC50,[2],25100 nM
same,IC50,[3],> 200000 nM
CCOc1ccccc1C(=O)NCC1(N2CCN(C(C)C)CC2)CCOCC1,IC50,[2],316 nM
same,IC50,[3],3980 nM
CCOc1ccccc1C(=O)NCC1(N2CCN(c3ccccc3)CC2)CCCCC1,Selectivity ratio,Homo sapiens [1],10
same,IC50,[2],> 200000 nM
same,IC50,[3],100000 nM
COc1ccc([C@@H](C)CN(C/C=C\CN2C=Cc3cc(OC)c(OC)cc3CC2=O)C/C=C\CN2C=Cc3cc(OC)c(OC)cc3CC2=O)cc1OC,Selectivity ratio,Homo sapiens [1],> 150
same,Selectivity ratio,Homo sapiens [4],30
CCOc1ccccc1C(=O)NCC1(N2CCN(C3CC3)CC2)CCCCC1,Selectivity ratio,Homo sapiens [1],10
same,IC50,[2],50.1 nM
same,IC50,[3],316 nM
CCOc1ccccc1C(=O)NCC1(N2CCN(C)CC2)CCCC1,IC50,[2],398 nM
same,IC50,[3],5010 nM
CCOc1ccccc1C(=O)NCC1(N2CCN(C)CC2)CCCCC1,Selectivity ratio,Homo sapiens [1],10
same,IC50,[2],126 nM
same,half-life,[5],22 min
same,IC50,[3],1260 nM
CN1CCN(C2(CNC(=O)c3ccccc3Cl)Cc3ccccc3C2)CC1,IC50,[2],20000 nM
same,IC50,[3],158000 nM
CN1CCN(C2(CNC(=O)c3ccccc3O)Cc3ccccc3C2)CC1,IC50,[2],> 200000 nM
same,IC50,[3],> 200000 nM
CCN(c1ccccc1)c1cc(NC)[n+](C)c(C)n1.[Cl-],IC50,[2],158 nM
same,ED20,Mus musculus [6],1.3 mg/kg
same,IC50,[3],31.6 nM
same,ED50,Mus musculus [7],3 mg/kg
COc1ccccc1C(=O)NCC1(N2CCN(C(C)C)CC2)CCCCC1,Selectivity ratio,Homo sapiens [1],10
same,IC50,[2],31.6 nM
same,IC50,[3],794 nM
CCOc1ccccc1C(=O)NCC1(N2CCN(C(C)C)CC2)Cc2ccccc2C1,IC50,[2],631 nM
same,IC50,[3],3160 nM
CC(C)Oc1ccccc1C(=O)NCC1(N2CCN(C(C)C)CC2)CCCCC1,Selectivity ratio,Homo sapiens [1],10
same,IC50,[2],251 nM
same,IC50,[3],1580 nM
CCOc1ccccc1C(=O)NCC1(N2CCN(C(C)C)CC2)CCCCC1,Selectivity ratio,Homo sapiens [1],10
same,IC50,[2],15.8 nM
same,IC50,[3],316 nM
CN1CCN(C2(CNC(=O)c3ccccc3F)Cc3ccccc3C2)CC1,IC50,[2],25100 nM
same,IC50,[3],> 200000 nM
